target: CDK4/CyclinD1 (Homo sapiens, UniProt P11802); assay: CDK4/CyclinD1 Flashplate assay, 96-well format, biotinylated-Rb peptide substrate; assay type: biochemical; conditions: not given
Description: This is a CDK4/CyclinD1 kinase assay in a 96-well Streptavidin-coated Flashplate with a biotinylated-Rb peptide substrate.
Each point is tested in duplicate
Biotinylated-Rb: Biotin-[…]
• 1. Prepare substrate: 1 mg/ml solution made fresh in PBS. • 2. Add 100 μg per well to the Flashplate. • 3. Incubate for 2 hours at RT. • 4. From 10 mM inhibitor stocks in DMSO, make 1 mM, 300 μM, 100 μM, 30 μM and 10 μM series of dilution in DMSO. • 5. Wash the Flashplate 3 times with 300 μl PBS to remove unbound peptide substrate. • 6. Add the CDK4/CyclinD1 kinase: 70 ng per well, in a volume of 90 μl in kinase buffer (except for “no enzyme” control wells). • 7. Add 1 μl^1 per well of inhibitor to test 10 μM, 3 μM, 1 μM, 0.3 μM and 0.1 μM in final concentration per 100 μl in each well. • 8. Shake gently the Flashplate 1 minute. • 9. Incubate 30 minutes on wet ice. • 10. Initiate the reaction with 10 μl kinase buffer containing 1 μM final cold ATP and 1 μCi final ^33P-ATP per well. • 11. Shake gently the Flashplate 1 minute. • 12. Incubate 45 minutes at RT (no shaking). • 13. Wash the Flashplate 3 times with 300 μl PBS • 14. Count to detect the incorporation of ^33P-ATP by the kinase to the Rb phosphorylation site.

CDK4/CyclinD1, sequence (P11802 whole entry, species assumed): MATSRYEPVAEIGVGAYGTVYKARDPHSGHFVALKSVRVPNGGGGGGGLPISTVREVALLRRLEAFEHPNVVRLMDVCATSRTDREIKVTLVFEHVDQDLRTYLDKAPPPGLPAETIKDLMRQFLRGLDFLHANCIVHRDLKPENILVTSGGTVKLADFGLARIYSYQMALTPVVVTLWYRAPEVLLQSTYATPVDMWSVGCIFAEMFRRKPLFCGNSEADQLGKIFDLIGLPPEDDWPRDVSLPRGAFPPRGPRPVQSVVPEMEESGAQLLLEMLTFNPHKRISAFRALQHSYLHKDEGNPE
CDK4/CyclinD1, sequence (P24385 whole entry partner, species assumed): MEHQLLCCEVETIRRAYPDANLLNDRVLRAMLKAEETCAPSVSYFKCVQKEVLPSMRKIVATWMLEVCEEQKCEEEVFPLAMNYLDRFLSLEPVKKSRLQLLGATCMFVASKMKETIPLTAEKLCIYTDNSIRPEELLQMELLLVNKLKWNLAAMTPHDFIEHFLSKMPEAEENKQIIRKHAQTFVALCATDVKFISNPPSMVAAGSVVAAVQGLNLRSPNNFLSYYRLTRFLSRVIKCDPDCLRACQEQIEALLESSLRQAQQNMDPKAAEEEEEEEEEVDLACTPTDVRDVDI

Row | IC50 [nM] | inhibition at 10 µM [%] | SMILES
1 | 800 | – | CC(=O)NCCNc1ccc(S(=O)(=O)Oc2ccc3[nH]c(NC(=O)C4CC4)nc3c2)cc1 [Example 60-ac, 4-(2-Acetylamino-ethylamino)-benzenesulfonic acid 2-(cyclopropanecarbonyl-amino)-1H-benzoimidazol-5-yl ester]
2 | – | 90 | O=C(NCCN1CCOCC1)Nc1nc2cc(OS(=O)(=O)c3ccc(NCc4ccccc4)cc3)ccc2[nH]1 [Example 78-w, 4-Benzylamino-benzenesulfonic acid 2-[3-(2-morpholin-4-yl-ethyl)-ureido]-1H-benzoimidazol-5-yl ester]
3 | – | 100 | CCNC(=O)Nc1nc2cc(OS(=O)(=O)c3ccc(NC(C)CO)cc3)ccc2[nH]1 (centres unmarked) [Example 78-l, 4-(2-Hydroxy-1-methyl-ethylamino)-benzenesulfonic acid 2-[3-(2-ethyl)-ureido]-1H-benzoimidazol-5-yl ester]
4 | – | 54 | COCCNC(=O)Nc1nc2cc(OS(=O)(=O)c3ccc(OCc4ccccc4)cc3)ccc2[nH]1 [Example 78-o, 4-Benzyloxy-benzenesulfonic acid 2-[3-(2-methoxy-ethyl)-ureido]-1H-benzoimidazol-5-yl ester]
5 | 1490 | – | NC(=O)C1CCCN1C(=O)Nc1nc2cc(OS(=O)(=O)c3ccc(NC4CCCC4)cc3)ccc2[nH]1 (stereo not drawn) [Example 58-ae, 4-Cyclopentylamino-benzenesulfonic acid 2-[(2S-carbamoyl-pyrrolidine-1-carbonyl)-amino]-1H-benzoimidazol-5-yl ester]
6 | – | 55 | O=C(NCCN1CCOCC1)Nc1nc2cc(OS(=O)(=O)c3ccc(NCC4CCNCC4)cc3)ccc2[nH]1 [Example 78-t, 4-[(Piperidin-4-ylmethyl)-amino)-benzenesulfonic acid 2-[3-(2-morpholin-4-yl-ethyl)-ureido]-1H-benzoimidazol-5-yl ester]
7 | – | 50 | COC(=O)Nc1nc2ccc(OS(=O)(=O)c3ccc(OCCN4CCOCC4)cc3)cc2[nH]1 [Example 64-b, 4-(2-Morpholin-4-yl-ethoxy)-benzenesulfonic acid 2-methoxycarbonylamino-3H-benzoimidazol-5-yl ester]
8 | 1200 | – | O=C(Nc1nc2cc(OS(=O)(=O)c3ccc(NC4CCC(O)CC4)cc3)ccc2[nH]1)C1CC1 (centres unmarked) [Example 60-p, 4-(4-Hydroxy-cyclohexylamino)-benzenesulfonic acid 2-(cyclopropanecarbonyl-amino)-1H-benzoimidazol-5-yl ester]
9 | 1770 | – | Nc1nc2cc(OS(=O)(=O)c3ccc(NC4CCCC4)cc3)ccc2[nH]1 [Example 22, 5-(4-cyclopentylaminophenylsulfonyloxy)-1H-benzimidazole-2-ylamine]
10 | – | 90 | CCNC(=O)Nc1nc2cc(OS(=O)(=O)c3ccc(NCCOC)cc3)ccc2[nH]1 [Example 78-h, 4-(2-Methoxy-ethylamino)-benzenesulfonic acid 2-[3-(2-ethyl)-ureido]-1H-benzoimidazol-5-yl ester]
11 | 2500 | – | NC(=O)[C@H]1CCCN1c1ccc(S(=O)(=O)Oc2ccc3[nH]c(NC(=O)C4CC4)nc3c2)cc1 [Example 60-y, 4-(2R-Carbamoyl-pyrrolidin-1-yl)-benzenesulfonic acid 2-(cyclopropanecarbonyl-amino)-1H-benzoimidazol-5-yl ester]
12 | 1000 | – | COC(=O)Nc1nc2cc(OS(=O)(=O)c3ccccc3C#N)ccc2[nH]1 [Example 62-n, 2-Cyano-benzenesulfonic acid 2-methoxycarbonylamino-1H-benzoimidazol-5-yl ester]
13 | 900 | – | O=C(Nc1nc2cc(OS(=O)(=O)c3ccc(NCCCO)cc3)ccc2[nH]1)C1CC1 [Example 60-d, 4-(3-Hydroxy-propylamino)-benzenesulfonic acid 2-(cyclopropanecarbonyl-amino)-1H-benzoimidazo1-5-yl ester]
14 | 2230 | – | CCC(C)(C)NC(=O)Nc1nc2cc(OS(=O)(=O)c3ccc(NC4CCCC4)cc3)ccc2[nH]1 [Example 58-z, 4-Cyclopentylamino-benzenesulfonic acid 2-[3-(1,1-dimethyl-propyl)-ureido]-1H-benzoimidazol-5-yl ester]
15 | – | 88 | COCCNC(=O)Nc1nc2cc(OS(=O)(=O)c3ccc(NCCN4CCOCC4)cc3)ccc2[nH]1 [Example 78-s, 4-(2-Morpholin-4-yl-ethylamino)-benzenesulfonic acid 2-[3-(2-methoxy-ethyl)-ureido]-1H-benzoimidazol-5-yl ester]
16 | – | 50 | COC(=O)Nc1nc2ccc(OS(=O)(=O)c3ccc(OCCN4CCCCC4)cc3)cc2[nH]1 [Example 64-d, 4-(2-piperidin-1-yl-ethoxy)-benzenesulfonic acid 2-methoxycarbonylamino-3H-benzoimidazol-5-yl ester]
17 | 1000 | – | O=C(O)[C@@H]1CCCN1C(=O)Nc1nc2cc(OS(=O)(=O)c3ccc(NC4CCCC4)cc3)ccc2[nH]1 [Example 58-q, 1-[5-(4-Cyclopentylamino-benzenesulfonyloxy)-1H-benzoimidazol-2S-ylcarbamoyl]-pyrrolidine-2-carboxylic acid]
18 | – | 97 | COCCNc1ccc(S(=O)(=O)Oc2ccc3[nH]c(NC(=O)OC)nc3c2)cc1 [Example 68-a, 4-(2-methoxy-ethylamino)-benzenesulfonic acid 2-methoxycarbonylamino-1H-benzoimidazol-5-yl ester]
19 | 1000 | – | COC(=O)Nc1nc2cc(OS(=O)(=O)c3ccccc3C(F)(F)F)ccc2[nH]1 [Example 62-o, 2-Trifluoromethyl-benzenesulfonic acid 2-methoxycarbonylamino-1H-benzoimidazol-5-yl ester]
20 | 340 | – | O=C(Nc1nc2cc(OS(=O)(=O)c3ccc(NCCO)cc3)ccc2[nH]1)C1CC1 [Example 60-c, 4-(2-Hydroxy-ethylamino)-benzenesulfonic acid 2-(cyclopropanecarbonyl-amino)-1H-benzoimidazol-5-yl ester]
21 | 2000 | – | CC(C)N(CCNc1ccc(S(=O)(=O)Oc2ccc3[nH]c(NC(=O)C4CC4)nc3c2)cc1)C(C)C [Example 60-t, 4-(2-Diisopropylamino-ethylamino)-benzenesulfonic acid 2-(cyclopropanecarbonyl-amino)-1H-benzoimidazol-5-yl ester]
22 | – | 91 | COC(=O)Nc1nc2ccc(OS(=O)(=O)c3ccc(NCC4CC4)cc3)cc2[nH]1 [Example 67, 4-(cyclopropylmethyl-amino)-benzene sulfonic acid 2-methoxycarbonylamino-1H-benzoimidazol-5-yl ester]
23 | 8000 | – | CCNCCNc1ccc(S(=O)(=O)Oc2ccc3[nH]c(NC(=O)C4CC4)nc3c2)cc1 [Example 60-s, 4-(2-Ethylamino-ethylamino)-benzenesulfonic acid 2-(cyclopropanecarbonyl-amino)-1H-benzoimidazol-5-yl ester]
24 | 700 | – | COC(=O)Nc1nc2cc(OS(=O)(=O)c3ccc(F)cc3F)ccc2[nH]1 [Example 62-p, 2,4-Difluoro-benzenesulfonic acid 2-methoxycarbonylamino-1H-benzoimidazol-5-yl ester]
25 | 1800 | – | CCN(CC)CCNc1ccc(S(=O)(=O)Oc2ccc3[nH]c(NC(=O)C4CC4)nc3c2)cc1 [Example 60-q, 4-(2-Diethylamino-ethylamino)-benzenesulfonic acid 2-(cyclopropanecarbonyl-amino)-1H-benzoimidazol-5-yl ester]
26 | 2500 | – | COC(=O)Nc1nc2cc(OS(=O)(=O)c3cccc([N+](=O)[O-])c3)ccc2[nH]1 [Example 62-l, 3-Nitro-benzenesulfonic acid 2-methoxycarbonylamino-1H-benzoimidazol-5-yl ester]
27 | 1000 | – | CCOc1ccc(S(=O)(=O)Oc2ccc3nc(NC(=O)OC)[nH]c3c2)cc1 [Example 64-a, 4-Ethoxy-benzenesulfonic acid 2-methoxycarbonylamino-3H-benzoimidazol-5-yl ester]
28 | 900 | – | O=C(Nc1nc2cc(OS(=O)(=O)c3ccc(NCCCCO)cc3)ccc2[nH]1)C1CC1 [Example 60-e, 4-(4-Hydroxy-butylamino)-benzenesulfonic acid 2-(cyclopropanecarbonyl-amino)-1H-benzoimidazol-5-yl ester]
29 | 4370 | – | COCCOc1ccc(S(=O)(=O)Oc2ccc3nc(NC(=O)OC)[nH]c3c2)cc1 [Example 64-c, 4-(2-Methoxy-ethoxy)-benzenesulfonic acid 2-methoxycarbonylamino-3H-benzoimidazol-5-yl ester]
30 | 1000 | – | COCC(C)Nc1ccc(S(=O)(=O)Oc2ccc3[nH]c(NC(=O)C4CC4)nc3c2)cc1 (centres unmarked) [Example 60-f, 4-(2-Methoxy-1-methyl-ethylamino)-benzenesulfonic acid 2-(cyclopropanecarbonyl-amino)-1H-benzoimidazol-5-yl ester]

Row | SMILES | IC50 [nM] | inhibition at 10 µM [%]
31 | O=C(Nc1nc2cc(OS(=O)(=O)c3ccc(NC4CN5CCC4CC5)cc3)ccc2[nH]1)C1CC1 (centres unmarked) [Example 60-v, 4-(1-Aza-bicyclo[2.2.2]-oct-3-ylamino)-benzenesulfonic acid 2-(cyclopropane-carbonyl-amino)-1H-benzoimidazol-5-yl ester] | 4200 | –

same assay, conditions: at 10 μM

Row | inhibition of CDK4/cyclinD1 at 10 μM [% inhibition at 10 μM] | SMILES
32 | 93 | O=C(NCc1ccccn1)Nc1nc2cc(OS(=O)(=O)c3ccc(NCC4CCNCC4)cc3)ccc2[nH]1 [Example 78-u]

From patent publication US20050014811A1, “Substituted benzimidazole compounds and their use for the treatment of cancer” (Aventis Pharma S.A., priority 2001, published 2005)
